SMILES | melting point
CCCCn1c(=O)n(CCCCC(C)=O)c(=O)c2c1ncn2CC(C)=O | 87 °C
CCC1C(c2cccnc2Cl)=NOC1(C)O (stereo not given) | 71 °C
Cc1cc(CNC(=O)c2cc(-c3ccc(C(C)(C)C)cc3)nn2CC(=O)c2ccccc2)ccc1OC(C)(C)C(=O)O | 116 °C
CCCN1CCc2c(cccc2NC(=O)c2ccc(OC)cc2)C1 | 162 to 164 °C
CCNC(=O)c1sc(Cl)cc1[Si](C)(C)C | 105 to 108 °C
Cc1cc(-n2cncn2)c2cccc(OCc3c(Cl)ccc(S(=O)(=O)N4CCC[C@H]4C(=O)NCCCN(C)C)c3Cl)c2n1 | 105 °C
O=C1N[C@H](Cc2ccccc2C(F)(F)F)[C@H](c2ccc(F)cc2)O1 (racemic) | 138 to 140 °C
CCOCc1nc2c(N)nc3cc(CCCO)ccc3c2n1CC(C)(C)O | 177 to 178 °C
COc1ccc(/C=C/C(=O)Nc2ccccc2C(=O)OCC(=O)OC(C)(C)C)cc1OC | 116 to 118 °C
Oc1nnc(Cl)cc1N1CCNCC1 | 35 °C
CCCn1cnc2c(=O)[nH]c(N)nc21 | > 300 °C
COc1ccc(-c2nnc(N)nc2-c2ccc(OC)cc2)cc1 | 179 to 181 °C
COC(=O)c1ccc(-c2ncc(-c3ccc4c(c3)C(C)(C)CCC4(C)C)o2)cc1 | 153 to 155 °C
CN1C(=O)C(C(=O)Nc2ccc(Oc3ncc(Cl)cc3Cl)cc2)C(=O)N(C)C1=O | 234 to 235 °C
Cc1cc(C(=O)O)ccc1OCCNC(=O)C1Cc2ccccc2N1S(=O)(=O)c1ccc(-c2cccc(C(F)(F)F)c2)cc1 (stereo not given) | 102 to 108 °C
Nc1nc2c(c(Nc3ccc(Cl)cc3)n1)-c1ccccc1C2 | 216 to 217 °C
COc1ccc(-c2c(-c3ccccc3)nn3ccccc23)nn1 | 203 to 205 °C
CCCCCCCCCCOc1ccc(CO)cc1 | 54 to 55 °C
COc1ccc(CC(NC(c2ccccc2)c2ccccc2)P(O)O)cc1OC (stereo not given) | 205 °C
CN1CC(CO)CC2(O)c3cccc4[nH]cc(c34)CC12 (stereo not given) | 175 to 179 °C
COC(=O)c1ccc(Cn2c(=O)c3cc(C#CCc4ccc(OC)cc4)ccc3n3cnnc23)cc1 | 249 °C

SMILES | melting point
CC(C)(C)OC(=O)[C@@H]1CS[C@H](c2ccccc2)N1C(=O)CNC(=O)Nc1cccc(CCO)c1 | 164 °C
CCCCCC(C)C(C)c1cc(O)c2c3c(c(=O)oc2c1)SCC3 (stereo not given) | 165 to 166 °C
CC(C)(C)NS(=O)(=O)c1c(CO)nsc1OCC(F)(F)F | 113 to 116 °C
O=S(=O)(NCCCCCCCCCCOc1ccc(-n2ccnc2)cc1)c1ccc2ccccc2c1 | 112 to 115 °C
Cc1ccccc1CC(=O)Nc1ccc(C(=O)N2Cc3cccn3Cc3ccccc32)cc1 | 198 to 200 °C
CCOC(=O)c1cc(C(=O)C=CN(C)C)c(=O)[nH]c1C(=O)OCC | 71 °C
Clc1nc(N2CCCCC2)c2nc(Cl)nc(N3CCCCC3)c2n1 | 240 to 241 °C
CCOC(=O)C(=CNc1ccccc1OC)C(C)=O | 103 to 105 °C
CCOC(=O)CC1CCC2C3CC=C4C(C)(C)C(O)CCC4(C)C3CCC12C (stereo not given) | 127 to 129 °C
CC(Sc1nc(N)c(Br)c(Cl)n1)c1cc2ccccc2cn1 (stereo not given) | 173 to 174 °C
CCCCc1nc2c(N)nc3ccc(OCc4ccc(OC(F)(F)F)cc4)cc3c2n1C | 219 to 220 °C
CNC(=O)C1N=C(c2ccccc2)c2cc(Cl)ccc2NC1=O (stereo not given) | 294 °C
Cc1nc2c(CCCc3ccccc3)cccn2c1CC#N | 66.5 to 68 °C
COC(=O)c1ccc(CNC(C)=O)cc1S(=O)(=O)NC(=O)Nc1nc(OC)cc(OC)n1 | 149 to 150 °C
COc1ccc(CCNc2nc(N)c3nc(-c4ccco4)oc3n2)cc1 | 194 to 196 °C
COc1ccc(OC)c2c1C[C@@H](O)[C@@H](N)C2 (relative stereo) | 193 to 196 °C
CCOc1ccc2c(c1)n(C(C)(C)CC(C)(C)C)c(=O)n2S(=O)(=O)c1ccc(NC(=O)N(CC)CC)cc1OC | 225 °C
CCc1ccc(OCCCCCCN2CCN(c3nccs3)CC2)cc1 | 21 to 23 °C
CCN1C(=O)C(C)(C)C(=O)N(C)c2cc(CCN(CCn3cc(C)c4occc4c3=O)Cc3cc(C)nn3C)ccc21 | 171 to 173 °C
CC(=O)Nc1cccc(C(=O)NCc2ccc(-n3c(-c4cccnc4N)nc4ccc(C)nc43)cc2)c1 | 157 to 161 °C
CC(C)(C)OCC(=O)c1cnc(NC(=O)C(C)(C)C)cn1 | 138 to 140 °C

Next, values leading:

melting point | SMILES
193 to 194 °C | Cc1ccc2cc3nc4cccc(Cl)c4c-3[nH]c2c1
> 250 °C | Cc1cn2nc(-c3ccccc3)nc2cc1N
190 to 192 °C | O=C1Cc2cc(I)ccc2N1
93 to 95 °C | COC(=O)COc1ccc(C(=O)CCN2CCN(c3ccncc3)CC2)cc1
256 to 258 °C | CC(c1oc2ccc(Br)cc2c(=O)c1-c1ccccc1F)n1cnc2c(N)ncnc21 (stereo not given)
91 to 94 °C | C[C@@H](c1ccc(-c2ccn(C3CC3)c(=O)c2)cc1)N1CC[C@](CC(C)(C)O)(c2ccccc2)OC1=O
104 to 105 °C | O=[N+]([O-])c1ccc(C2OCCO2)nc1
107 to 109 °C | CCOC(=O)c1cc2cc(C)sc2[nH]1
178 to 179 °C | CN=C(NC#N)C1=CC(CF)(CF)Oc2ccc(C(F)(F)C(F)(F)F)cc21
> 250 °C | O=c1[nH]c(-c2cccc(Oc3ccc4c(c3)S(=O)(=O)N=C3CCCN34)c2)no1
248 to 250 °C | Cc1ccc(C)n1CCNC(=O)Nc1ccc(C(=O)O)cc1
161 to 162 °C | CCOC(=O)c1ccc(C(C(N)=O)C(Cc2ccccc2)c2ccccc2N2CCCCC2)cc1 (stereo not given)
70 °C | COCc1c(C)c(C(C)(C)C)cc(C(C)(C)C)c1O
253 to 255 °C | Cn1c(=O)nc(-c2ccccc2)c2cc3c(cc21)OCO3
190 °C | COC(=O)c1ccc(F)cc1SC(=O)N(C)C
< 80 °C | Cn1c(=O)oc2cc(CCCN3CCOCC3)cnc21
178 to 179 °C | COc1ccc(C(=O)c2c(N)sc3c2CCSC3)cc1
48 to 50 °C | Clc1ccc2c(c1)N(CC#CCN1CCCC1)c1ccccc1S2
160 °C | O=C1NC(=O)C(CC#Cc2ccc(Cl)cc2)(S(=O)(=O)c2cc(Cl)c(Cl)s2)S1 (stereo not given)
174 °C | Cc1cc(O)c(S(=O)C23CC4CC(CC(C4)C2)C3)c(=O)o1 (stereo not given)

melting point | SMILES
71 to 74 °C | O=C(O)c1cc(NC(=O)C(CS)Cc2ccccc2)cc(C(F)(F)F)c1 (stereo not given)
94 to 95 °C | CC(C)c1c(C=O)c(-c2ccc(F)cc2)c2ccccn12
145 °C | O=C1CC2(CCCC2)c2ccc(O)cc21
233 to 234 °C | COc1ccc2c(c1)CCc1c-2cc(-c2ccccc2)n1-c1ccc(O)c(C(=O)O)c1
118 to 120 °C | COc1ccc(/C=C/c2c(Cl)cncc2Cl)c2c1OCCCO2
282 to 283 °C | COc1cc(Nc2c(C#N)cnc3cc(-c4ccc(C(=O)O)cc4)ccc23)c(Cl)cc1Cl
89 to 91 °C | CS(=O)(=O)OCC1(COc2ccc(Br)cc2)COC1
215 °C | Cc1ccccc1-c1nc2ccccc2[nH]1
163 to 167 °C | CC(=O)Oc1ccc([N+](=O)[O-])cc1C1(OC(C)=O)C(=O)c2ccccc2C1=O
145 to 149 °C | CCCCOc1ncc(C(C)=O)cc1-c1nn2c(CC)nc(CN3CCOCC3)c2c(=O)[nH]1
128 to 129 °C | O=[N+]([O-])c1ccc(CN2CCNCCNCCNCC2)cc1
148 °C | O=C(CC1CCC1)N[C@H]1CC[C@H](CCN2CCN(c3nccc4c3OCC4)CC2)CC1
108 to 109 °C | Nc1ccccc1/C=C/c1ncon1
94 to 95 °C | CCOc1ccc(C(=O)c2ccccc2F)c(Cl)c1Cl
136 to 138 °C | CC(=O)c1ccc(OC(C)c2ccnc3ncnn23)cc1 (stereo not given)
280 °C | Nc1cc(-n2cc(C(=O)O)c(=O)c3cc(F)c(N4CC(N)C4)c(Cl)c32)ncc1F
173 to 176 °C | CC1(O)CC(=O)OC(c2ccc(-c3ccccc3)cc2)C1Br (stereo not given)
92 to 94 °C | CC1(C)OCC(COS(=O)(=O)c2ccc([N+](=O)[O-])cc2)O1 (stereo not given)
194 to 195 °C | Cc1c(C)c2c(c(C)c1NC(=O)CC(C)(C)C)C(C)(c1ccc(C(C)C)cc1)CO2 (stereo not given)
245 to 247 °C | Cc1c(F)cc(C(C)(C)C)c(O)c1-c1nc2cc(S(=O)(=O)C(F)(F)F)ccc2[nH]1

melting point | SMILES
108 to 110 °C | CCCN1CCC(=O)C2=C1CSc1ccc(OC)cc12
273 °C | CC(=O)Nn1cnc2c(Br)csc2c1=O
141 to 149 °C | O=C1N[C@H]2CCN(C(=O)OCc3ccccc3)[C@H]2[C@H]1C1CC1 (relative stereo)
108 to 110 °C | O=S(=O)(c1ccc(Cl)cc1)C(CCSCCO)c1cc(F)ccc1F (stereo not given)
300 °C | COc1ccc2c(=O)c(C#N)c(N)oc2c1
176 to 178 °C | Nc1c(-c2ccc(C(F)(F)F)cc2F)nnn1-c1ccc(O)cc1
205 to 208 °C | COc1ccc(Cl)c2c1c1c(n2Cc2ccccc2)CCCC1C(N)=O (stereo not given)
98.3 °C | O=[PH](c1ccc2ccccc2c1)c1ccc2ccccc2c1
94 to 96 °C | CC(=O)Oc1ccc(OC(C)=O)c(-c2ccc(C)cc2)c1
218 to 220 °C | COCCNC(N)=Nc1ccccc1N1CCCCC1
202 °C | O=C1c2ccccc2C(O)N1c1cccc(C(F)(F)F)c1 (stereo not given)
142 to 143 °C | CCOC(=O)C=Cc1ccc(OCc2nc(-c3ccco3)oc2C)c(OC)c1
246 to 248 °C | CC1CCc2c(N3CCCCC3)c(Cl)cc3c(=O)c(C(=O)O)cn1c23 (stereo not given)
236 to 238 °C | O=C(O)COC1=C(Cc2ccc3c(Cl)cccc3c2)C(=O)CCC1
93 °C | CN(C)S(=O)(=O)n1c(C#N)nc2ccccc21
96.5 to 98 °C | O=Cc1nc2cnccc2s1
122 to 128 °C | CC(=O)Oc1cnccc1CCCOc1cccnc1Cc1cccc(Br)c1
71 to 73 °C | COCO[C@@H](CCCCC1CCCCC1)CCc1ccc(C(C)(C)C)c(NC(=O)CC2c3ccccc3Oc3ccccc32)c1

Reference: a melting point compilation (Tetko et al.; mined from patent text by program, amines drawn as free bases though some values may be those of a salt)
